Reference: US12365655B2, “Compounds” (CTXT PTY LTD, priority 2018, dated 2025)

Tests used:
[1] = target: TIP60-KAT5 (Homo sapiens, UniProt Q92993); assay: Acetyltransferase biochemical assay (AlphaScreen), KAT5
[2] = target: MOZ-KAT6A (Homo sapiens, UniProt Q92794, A567V); assay: Acetyltransferase biochemical assay (AlphaScreen), KAT6A
[3] = target: HBO-KAT7 (Homo sapiens, UniProt O95251); assay: Acetyltransferase biochemical assay (AlphaScreen), KAT7
HBO-KAT7, sequence (O95251 with tags, fused parts or gaps): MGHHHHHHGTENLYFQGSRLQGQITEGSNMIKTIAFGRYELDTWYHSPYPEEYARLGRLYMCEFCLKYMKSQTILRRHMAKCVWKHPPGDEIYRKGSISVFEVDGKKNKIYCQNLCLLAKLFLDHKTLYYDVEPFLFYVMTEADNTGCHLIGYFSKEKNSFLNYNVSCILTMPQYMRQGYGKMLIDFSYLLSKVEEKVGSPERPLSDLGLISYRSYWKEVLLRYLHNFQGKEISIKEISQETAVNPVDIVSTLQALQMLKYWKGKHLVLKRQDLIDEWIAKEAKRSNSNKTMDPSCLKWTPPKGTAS

TIP60-KAT5, sequence (Q92993 with tags, fused parts or gaps isoform Q92993-2): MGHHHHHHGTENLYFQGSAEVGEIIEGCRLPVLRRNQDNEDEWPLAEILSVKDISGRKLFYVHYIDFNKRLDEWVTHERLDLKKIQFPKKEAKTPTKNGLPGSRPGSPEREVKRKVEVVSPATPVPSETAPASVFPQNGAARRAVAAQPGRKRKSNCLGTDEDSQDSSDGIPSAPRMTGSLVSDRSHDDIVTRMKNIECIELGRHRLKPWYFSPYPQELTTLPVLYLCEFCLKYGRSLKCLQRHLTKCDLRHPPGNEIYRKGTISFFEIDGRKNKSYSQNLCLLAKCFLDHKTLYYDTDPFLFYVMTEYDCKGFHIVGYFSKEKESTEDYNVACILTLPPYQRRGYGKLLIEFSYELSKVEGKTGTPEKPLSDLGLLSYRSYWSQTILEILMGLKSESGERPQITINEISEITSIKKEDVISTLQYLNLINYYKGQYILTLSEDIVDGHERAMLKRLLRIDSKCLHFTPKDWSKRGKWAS
MOZ-KAT6A, sequence (Q92794 with tags, fused parts or gaps A567V): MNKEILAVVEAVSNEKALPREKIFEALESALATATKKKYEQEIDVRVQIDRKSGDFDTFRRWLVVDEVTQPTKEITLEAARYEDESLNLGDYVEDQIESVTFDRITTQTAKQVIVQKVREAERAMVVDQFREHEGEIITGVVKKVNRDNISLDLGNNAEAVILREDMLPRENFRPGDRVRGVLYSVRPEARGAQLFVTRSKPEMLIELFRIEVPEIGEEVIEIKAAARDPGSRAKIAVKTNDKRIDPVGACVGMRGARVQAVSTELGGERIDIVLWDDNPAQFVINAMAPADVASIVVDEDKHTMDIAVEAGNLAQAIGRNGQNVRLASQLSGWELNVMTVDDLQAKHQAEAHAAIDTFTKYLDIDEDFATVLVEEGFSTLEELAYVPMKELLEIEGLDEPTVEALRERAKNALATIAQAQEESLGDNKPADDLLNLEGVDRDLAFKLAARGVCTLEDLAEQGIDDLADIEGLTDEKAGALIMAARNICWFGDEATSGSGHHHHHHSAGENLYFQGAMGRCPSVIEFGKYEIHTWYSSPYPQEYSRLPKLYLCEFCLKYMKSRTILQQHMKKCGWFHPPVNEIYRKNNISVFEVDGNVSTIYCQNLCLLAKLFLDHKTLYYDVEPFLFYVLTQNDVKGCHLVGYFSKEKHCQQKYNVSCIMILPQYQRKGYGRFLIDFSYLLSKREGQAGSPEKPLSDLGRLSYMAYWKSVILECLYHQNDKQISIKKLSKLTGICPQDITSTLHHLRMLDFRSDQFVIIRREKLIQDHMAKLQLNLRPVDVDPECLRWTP

`CCc1ccc(OC)c(S(=O)(=O)Nc2noc3c(CC)cccc23)c1` [Example 188] was tested, and the IC50 [1] was 69.9 µM, the IC50 [2] was 9.23 µM and the IC50 [3] was 40.1 µM.
Work on `O=S(=O)(Nc1noc2cccc(Cl)c12)c1ccc(Oc2ccc(F)cc2)cc1` [Example 17, N-(4-chlorobenzo[d]isoxazol-3-yl)-4-(4-fluorophenoxy) benzenesulfonamide] yielded an IC50 [1] of 27.7 µM, an IC50 [2] of 11.8 µM and an IC50 [3] of 14.6 µM.
`O=S(=O)(Nc1noc2cccc(Cl)c12)c1cccc2ccncc12` [Example 159, N-(4-chlorobenzo[d]isoxazol-3-yl)isoquinoline-8-sulfonamide] was tested, and the IC50 [1] was > 125 µM, the IC50 [2] was 66.6 µM and the IC50 [3] was 37.6 µM.
For `CCc1ccc(OC)c(S(=O)(=O)Nc2noc3ccc(CNC(C)=O)cc23)c1` [Example 228, N-((3-((5-Ethyl-2-methoxyphenyl)sulfonamido)benzo[d]isoxazol-5-yl)methyl)acetamide], the IC50 [1] was 124 µM, the IC50 [2] was 75.2 µM and the IC50 [3] was > 125 µM.
For `O=S(=O)(Nc1noc2cccc(Cl)c12)c1ccc(-n2cccn2)cc1` [Example 28, N-(4-chlorobenzo [d]isoxazol-3-yl)-4-(1H-pyrazol-1-yl)benzenesulfonamide], the IC50 [1] was > 125 µM, the IC50 [2] was 117 µM and the IC50 [3] was 54.8 µM.
With `COc1cccc(OC)c1S(=O)(=O)Nc1noc2cc(-c3cccnc3)cc(OC)c12` [Example 246, 2,6-Dimethoxy-N-(4-methoxy-6-(pyridin-3-yl)benzo[d]isoxazol-3-yl)benzenesulfonamide] the IC50 [1] was 27.1 µM, the IC50 [2] was 0.676 µM and the IC50 [3] was 0.478 µM.
For `COc1cccc(OCCO)c1S(=O)(=O)Nc1noc2cccc(OC)c12` [Example 220, 2-(2-Hydroxyethoxy)-6-methoxy-N-(4-methoxybenzo[d]isoxazol-3-yl)benzenesulfonamide], the IC50 [1] was > 125 µM, the IC50 [2] was 3.5 µM and the IC50 [3] was 11 µM.
`COc1ccc(C(C)(C)C)cc1S(=O)(=O)Nc1noc2ccccc12` [Example 48, N-(benzo[d]isoxazol-3-yl)-5-(tert-butyl)-2-methoxy benzene sulfonamide] showed an IC50 [1] of 92.9 µM, an IC50 [2] of 7.41 µM and an IC50 [3] of 54.8 µM.
`CCc1ccc(S(=O)(=O)Nc2noc3ccccc23)c(OC)c1` [Example 182] showed an IC50 [1] of 65.6 µM, an IC50 [2] of 15.2 µM and an IC50 [3] of 15.6 µM.
Work on `COc1cc(-c2cc(OC)c3c(NS(=O)(=O)c4c(OC)cccc4OC)noc3c2)ccn1` [Example 249, 2,6-Dimethoxy-N-(4-methoxy-6-(2-methoxypyridin-4-yl)benzo[d]isoxazol-3-yl)benzenesulfonamide] yielded an IC50 [1] of 69.2 µM, an IC50 [2] of 1.27 µM and an IC50 [3] of 0.889 µM.
With `CCc1ccc(OC)c(S(=O)(=O)Nc2noc3c(CO)cccc23)c1` [Example 186] the IC50 [1] was 84.7 µM, the IC50 [2] was 25.2 µM and the IC50 [3] was 47.1 µM.
`COc1cccc(OC)c1S(=O)(=O)Nc1noc2cc(-c3cccc(C#N)c3)cc(OC)c12` [Example 243] was tested, and the IC50 [1] was 18.1 µM, the IC50 [2] was 0.654 µM and the IC50 [3] was 0.72 µM.
Work on `CCc1ccc(OC)c(S(=O)(=O)Nc2noc3ccc(Br)c(Cl)c23)c1` [Example 128, N-(5-bromo-4-chlorobenzo[d]isoxazol-3-yl)-5-ethyl-2-methoxy benzenesulfonamide] yielded an IC50 [1] of 6.3 µM, an IC50 [2] of 0.25 µM and an IC50 [3] of 0.618 µM.
In the case of `COCc1ccc2c(NS(=O)(=O)c3c(OC)cccc3OC)noc2c1` [Example 103, 2,6-Dimethoxy-N-(6-(methoxymethyl)benzo [d]isoxazol-3-yl)benzenesulfonamide], the IC50 [1] is reported as 69.3 µM, the IC50 [2] is reported as 0.81 µM and the IC50 [3] is reported as 5.93 µM.
Compound `CCc1ccc(OC)c(S(=O)(=O)Nc2noc3c(C4CC4)cccc23)c1` [Example 189] has an IC50 [1] of 32 µM, an IC50 [2] of 4.35 µM and an IC50 [3] of 8.02 µM.
With `COc1ccc(Br)cc1S(=O)(=O)Nc1noc2cccc(Cl)c12` [Example 45] the IC50 [1] was 34.3 µM, the IC50 [2] was 2.08 µM and the IC50 [3] was 6.83 µM.
`O=S(=O)(Nc1noc2cccc(Cl)c12)c1ccc2c(c1)CCC2` [Example 44, N-(4-chlorobenzo [d]isoxazol-3-yl)-2,3-dihydro-1H-indene-5-sulfonamide] gave an IC50 [1] of 60.2 µM, an IC50 [2] of 10.6 µM and an IC50 [3] of 10.8 µM.
In the case of `Cn1nc2cccc(S(=O)(=O)Nc3noc4cccc(Cl)c34)c2n1` [Example 6, N-(4-chlorobenzo [d]isoxazol-3-yl)-2-methyl-2H-benzo[d][1,2,3]triazole-4-sulfonamide], the IC50 [1] is reported as 94.9 µM, the IC50 [2] is reported as 30.2 µM and the IC50 [3] is reported as 6.28 µM.
Compound `CCc1ccc(OC)c(S(=O)(=O)Nc2noc3cc(-c4ccccc4)ccc23)c1` [Example 179, 5-Ethyl-2-methoxy-N-(6-phenylbenzo[d]isoxazol-3-yl)benzenesulfonamide] has an IC50 [1] of 32.1 µM, an IC50 [2] of 2.86 µM and an IC50 [3] of 13.5 µM.
For `COc1ccccc1S(=O)(=O)Nc1noc2cccc(F)c12` [Example 156], the IC50 [1] was > 125 µM, the IC50 [2] was 1.54 µM and the IC50 [3] was 1.97 µM.
In the case of `CCc1ccc(OC)c(S(=O)(=O)Nc2noc3cccc(COC)c23)c1` [Example 110, 5-Ethyl-2-methoxy-N-(4-(methoxymethyl)benzo [d]isoxazol-3-yl)benzenesulfonamide], the IC50 [1] is reported as > 125 µM, the IC50 [2] is reported as 7.89 µM and the IC50 [3] is reported as 17.5 µM.
`CCc1ccc(OC)c(S(=O)(=O)Nc2noc3cccc(C(F)(F)F)c23)c1` [Example 121, 5-Ethyl-2-methoxy-N-(4-(trifluoromethyl)benzo[d]isoxazol-3-yl)benzenesulfonamide] gave an IC50 [1] of 29 µM, an IC50 [2] of 1.24 µM and an IC50 [3] of 5.21 µM.
`CCc1ccc(OC)c(S(=O)(=O)Nc2noc3cc(Br)ccc23)c1` [Example 138] showed an IC50 [1] of 5.11 µM, an IC50 [2] of 2.89 µM and an IC50 [3] of 3.68 µM.
With `COc1ccc(-c2ccno2)cc1S(=O)(=O)Nc1noc2ccccc12` [Example 55, N-(benzo[d]isoxazol-3-yl)-5-(isoxazol-5-yl)-2-methoxybenzene sulfonamide] the IC50 [1] was > 125 µM, the IC50 [2] was 103 µM and the IC50 [3] was > 125 µM.
Compound `CCc1ccc(OC)c(S(=O)(=O)Nc2noc3ccc(Br)c(OC)c23)c1` [Example 108, N-(5-bromo-4-methoxybenzo[d]isoxazol-3-yl)-5-ethyl-2-methoxy benzenesulfonamide] has an IC50 [1] of 41.9 µM, an IC50 [2] of 3.09 µM and an IC50 [3] of 2.04 µM.
`CCc1ccc(OC)c(S(=O)(=O)Nc2noc3cccc(C)c23)c1` [Example 198, 5-Ethyl-2-methoxy-N-(4-methylbenzo[d]isoxazol-3-yl)benzenesulfonamide] was tested, and the IC50 [1] was 73.7 µM, the IC50 [2] was 2.82 µM and the IC50 [3] was 6.95 µM.
`O=S(=O)(Nc1noc2cccc(Cl)c12)c1ccc(OC(F)F)cc1` [Example 34, N-(4-chlorobenzo [d]isoxazol-3-yl)-4-(difluoromethoxy) benzenesulfonamide] was tested, and the IC50 [1] was > 125 µM, the IC50 [2] was > 125 µM and the IC50 [3] was 31.5 µM.
`O=S(=O)(Nc1noc2ccccc12)c1ccc(C2CCCCC2)cc1` [Example 71, N-(benzo[d]isoxazol-3-yl)-4-cyclohexyl benzene-sulfonamide] gave an IC50 [1] of 28.4 µM, an IC50 [2] of 11.6 µM and an IC50 [3] of 21.6 µM.
With `O=S(=O)(Nc1noc2cccc(Cl)c12)c1cc(Br)cc2c1OCC2` [Example 127, 5-bromo-N-(4-chlorobenzo[d]isoxazol-3-yl)-2,3-dihydrobenzofuran-7-sulfonamide] the IC50 [1] was 49.7 µM, the IC50 [2] was 9.16 µM and the IC50 [3] was 9.49 µM.
For `CCc1ccc(OC)c(S(=O)(=O)Nc2noc3ccc(-c4cncnc4)cc23)c1` [Example 238, 5-Ethyl-2-methoxy-N-(5-(pyrimidin-5-yl)benzo[d]isoxazol-3-yl)benzenesulfonamide], the IC50 [1] was > 125 µM, the IC50 [2] was 12 µM and the IC50 [3] was 94.2 µM.
With `COc1cccc(O)c1S(=O)(=O)Nc1noc2cccc(OC)c12` [Example 213, 2-Hydroxy-6-methoxy-N-(4-methoxybenzo[d]isoxazol-3-yl)benzenesulfonamide] the IC50 [1] was > 125 µM, the IC50 [2] was 8.28 µM and the IC50 [3] was 20.5 µM.
With `COc1ccc(OC)c(S(=O)(=O)Nc2noc3ccccc23)c1` [Example 46, N-(benzo[d]isoxazol-3-yl)-2,5-dimethoxybenzene-sulfonamide] the IC50 [1] was > 125 µM, the IC50 [2] was 36.2 µM and the IC50 [3] was 74.4 µM.
`O=S(=O)(Nc1noc2cccc(Cl)c12)c1ccccc1F` [Example 30, N-(4-chlorobenzo [d]isoxazol-3-yl)-2-fluorobenzenesulfonamide] was tested, and the IC50 [1] was > 125 µM, the IC50 [2] was 89.5 µM and the IC50 [3] was 11.5 µM.
Work on `O=S(=O)(Nc1noc2ccccc12)c1ccc(-c2ccccc2)cc1` [Example 69, N-(benzo[d]isoxazol-3-yl)-[1,1-biphenyl]-4-sulfonamide] yielded an IC50 [1] of 124 µM, an IC50 [2] of 42.9 µM and an IC50 [3] of 94.1 µM.
Work on `COc1cccc(OCc2ccccc2)c1S(=O)(=O)Nc1noc2cccc(OC)c12` [Example 222, 2-(Benzyloxy)-6-methoxy-N-(4-methoxybenzo[d]isoxazol-3-yl)benzenesulfonamide] yielded an IC50 [1] of 26.8 µM, an IC50 [2] of 0.655 µM and an IC50 [3] of 1.42 µM.
In the case of `CCc1cccc(S(=O)(=O)Nc2noc3ccccc23)c1` [Example 52, N-(benzo[d]isoxazol-3-yl)-3-ethylbenzene sulfonamide], the IC50 [1] is reported as > 125 µM, the IC50 [2] is reported as 85.3 µM and the IC50 [3] is reported as > 125 µM.
`Cn1c(=O)oc2cc(S(=O)(=O)Nc3noc4cccc(Cl)c34)ccc21` [Example 13, N-(4-chlorobenzo [d]isoxazol-3-yl)-3-methyl-2-oxo-2,3-dihydrobenzo[d]oxazole-6-sulfonamide] showed an IC50 [1] of 120 µM, an IC50 [2] of 63.9 µM and an IC50 [3] of 63.8 µM.
With `O=S(=O)(Nc1noc2cccc(Cl)c12)c1cccc2nsnc12` [Example 7, N-(4-chlorobenzo [d]isoxazol-3-yl)benzo[c][1,2,5]thiadiazole-4-sulfonamide] the IC50 [1] was > 125 µM, the IC50 [2] was 62.7 µM and the IC50 [3] was 14.2 µM.
`O=S(=O)(Nc1noc2ccccc12)c1ccc(Cl)cc1Cl` [Example 62, N-(benzo[d]isoxazol-3-yl)-2,4-dichlorobenzene-sulfonamide] was tested, and the IC50 [1] was > 125 µM, the IC50 [2] was 43.7 µM and the IC50 [3] was 70.6 µM.
